Structures can show the parent of a compound that is named as a salt. Where two headings read alike, the source gives them in different places.
Legend:
[1] = Effectiveness as liberating agent for bilirubin (general statement); type: in vitro ADME
Excerpt: (§1) The term "liberating agent" as used herein defines a reagent which when added to a body fluid, increases the ratio of a free soluble chemical to the total content of that chemical in the body fluid. The total content is the aggregate of both the free soluble and bound states of the chemical. More than one physical mechanism can be encountered with the same resultant advantageous partitioning of the target chemical from the bound to the free soluble phase. […] In general, liberating agents as herein defined are useful in body fluids and in vivo.

[2] = Thiopental in fresh human plasma with ethanol, equilibrated with coated activated charcoal (uv relative absorbance); type: in vitro ADME
Method: Thiopental was added to fresh human plasma at room temperature and allowed to equilibrate. Relative absorbances, proportional to free drug concentration, were measured spectrophotometrically (uv). Ethanol concentrations of 0, 0.4, 0.7, 1.0, and 1.4% v/v were tested. Drug/plasma and drug/plasma/ethanol solutions were equilibrated with coated activated charcoal.

[3] = Free drug concentration of thiopental in fresh human plasma with ethanol (thin layer chromatography); type: in vitro ADME; conditions: ethanol 0 to 1.0% v/v, room temperature
Method: Thiopental was added to fresh human plasma at room temperature and allowed to equilibrate. Thin layer chromatography, used as an indicator of free drug concentration, was compared to thiopental calibrated plates. Ethanol concentrations of 0, 0.1, 0.2, 0.3, 0.4, 0.5, 0.6, 0.7, 0.8 and 1.0% v/v were tested. A maximum free drug concentration occurred at and above 0.6% v/v.

human albumin [4] = test: Free thiopental in human albumin solution with sodium lauryl sulfate (differential solution pH change); type: in vitro ADME; conditions: sodium lauryl sulfate 0, 2, 4, 6, 8, and 10 mg/ml; room temperature
Method: Thiopental was added to a human albumin solution at room temperature and allowed to equilibrate. Differential solution pH changes, related to free drug concentration, were measured.

[5] = less than two percent by volume (% v/v); barbiturates (thiopental, secobarbital, pentobarbital), tricyclics (imipramine, chlorpromazine)
Excerpt: as §1

human albumin [6] = test system: human albumin
Method: Imipramine HCl, an antidepressant, was added to a human albumin solution at room temperature and allowed to equilibrate. Differential solution pH changes, related to free drug concentration, were measured. Ethanol concentrations of 0, 0.2, 0.4, 0.6, 0.8 and 1.0% v/v were tested.

[7] = Effectiveness as liberating agent for thiopental (general statement); type: in vitro ADME; conditions: specific drugs such as thiopental
Excerpt: as §1

human albumin [8] = test: Free chlorpromazine in human albumin solution with ethanol (differential solution pH change); type: in vitro ADME; conditions: ethanol 0 to 1.0% v/v; room temperature
Method: Chlorpromazine HCl, a tranquilizer, was added to a human albumin solution at room temperature and allowed to equilibrate. Differential solution pH changes, related to free drug concentration, were measured.

CC(=O)Oc1ccccc1C(=O)O [acetylsalicylic acid]
specificity as liberating agent [1]: specific for bilirubin

CCCC(C)C1(CC)C(=O)NC(=S)NC1=O (centres unmarked) [Thiopental]
adsorption of the drug by charcoal ([2]; 0 to 1.4% v/v ethanol): significant increased adsorption of the drug by charcoal | change in relative absorbance ([2]; from 0 to 1.4% v/v ethanol): 13% | ethanol concentration at and above which maximum free drug concentration occurred [3]: ≥ 0.6 % v/v | differential solution pH change (human albumin [4]): continuous pH change | free soluble drug concentration (human albumin [4]): increasing free soluble drug concentrations

CCO [ethanol]
effectiveness as liberating agent [5]: effective

CN(C)CCCN1c2ccccc2CCc2ccccc21 [Imipramine HCl]
free soluble drug concentration (differential pH responses) (human albumin [6]): significant increases in the free soluble drug concentration

CCCCCCCCCCCCS(=O)(=O)[O-].[Na+] [sodium lauryl sulfonate]
effectiveness as liberating agent [7]: effective

CN(C)CCCN1c2ccccc2Sc2ccc(Cl)cc21 [Chlorpromazine HCl]
free soluble concentration of the drug (human albumin [8]): increases in free soluble concentration

CCCCCCCCCCCC(=O)O [lauric acid]
effectiveness as liberating agent [7]: effective
